In patent US11298314B2, “Injectable composition for localized fat reduction without pain, edema, and side effects, and method for preparing same” (AMI PHARM CO., LTD., priority 2017, dated 2022):
“Also recorded” adds a separate entry of the source.

Legend:
[1] = system: paw of the rats; assay: Rat paw edema; format: in vivo, Sprague Dawley rats; settings: for degree of edema in words: 2 hours after administration, rat paw; for degree of edema, 1 hour after administration / degree of edema, 2 hours after administration / degree of edema, Immediately after administration: 0.1 ml into rat paw
Outline: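 Male Sprague Dawley rats (6 weeks old, 170–200 g) received 0.1 ml of PBS or test composition into the paw. Paw thickness measured by caliper before, immediately after, and 1 or 2 h post-injection; edema graded 0–4, with injection-site skin lesions photographed.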

[2] = system: sole of the rat paws; assay: Measurement of skin lesion (erythema) on rat paw; format: in vivo, Sprague Dawley rats; settings: for skin lesion (erythema) in words: 2 hours after administration;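 on grade of skin lesion (erythema), 1 hour after administration: grades − to ++++ mean no to extremely severe erythema versus before injection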;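 on grade of skin lesion (erythema), 2 hours after administration: grades − to ++++ mean no to extremely severe erythema versus before injection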;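 on grade of skin lesion (erythema), Immediately after administration: grades − to ++++ mean no to extremely severe erythema versus before injection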
Outline: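 Male Sprague Dawley rats (6 weeks, 170–200 g) received 0.1 ml test composition or PBS injected into the paw. Paw thickness measured by caliper before, immediately after, and 1 or 2 h post-injection; sole lesions photographed and graded 0–4.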

[3] = system: tissues of the injected area (rat paw); assay: H&E staining histological test (inflammation) of injected rat paw; format: in vivo, Sprague Dawley rats; settings: for degree of inflammation (H&E) in words: rats sacrificed at 3 hours, injected paw
Experimental: The tissues of the injected area were dissected, fixed with 10% formalin, and then the specimen was prepared and images were captured using an optical microscope. The degree of inflammation was evaluated as follows.

[4] = system: 3T3-L1 adipocytes; assay: Adipocyte (3T3-L1) reducing effect, MTT assay; format: cell-based
Experimental: Tests were performed to compare the adipocyte reducing activity of the PPC single composition and the PPC composition solubilized with bile acids. Differentiated 3T3L-1 adipocyte lines were used to observe adipocyte reduction activity, and cell viability was monitored by MTT assay. […] Materials and methods employed in the following experiments are described below. In the following, % of the composition refers to % (w/v).
The specific test methods are as follows. […] The cells were washed twice with PBS, treated with MTT reagent (50 μl) and left at 37° C. for 2 hours. After removing the supernatant, MTT formazan crystals were dissolved in DMSO and the absorbance was measured at 540 nm using a microplate reader.
The 3T3-L1 adipocyte (ATCC) was cultured in Dulbecco's modified eagle medium (DMEM) (Invitrogen) supplemented with 10% fetal bovine serum, 100 units/ml penicillin and 100 μg/ml streptomycin under the condition of 5% CO2 and 37° C. […] Subsequently, the medium was replaced with DMEM medium containing 1 μg/ml insulin (Sigma), and the culture medium was maintained and changed every 2 to 3 days until the degree of differentiation reaches maximum. If it took more than 7 days, the cells were kept in normal DMEM culture medium until starting the tests. […] After the cells were incubated for 3 hours under the condition of 37° C. and 5% CO2, the MTT solution was removed.

[5] = system: Caspase 3 in 3T3-L1 adipocytes; assay: Caspase 3 activity assay; format: cell-based; settings: 0-48 hours
Experimental: The Caspase 3 activity assay was performed with the test materials to determine whether the cell death in the result of MTT assay was due to necrosis or apoptosis. The Caspase 3 specifically increases when apoptosis occurs and is a marker of apoptosis. […] The cells were then treated with 50 ul of cell lysis buffer (10 mM Tris-HCl, 10 mM NaH2PO4/NaHPO4, pH 7.5, 130 mM NaCl, 1% Triton X-100 and 10 mM sodium pyrophosphate) and left at 4° C. for […]. The supernatant was collected by centrifugation at 1000× rpm for 1 minute, and protein quantification was performed by BCA method. The 50 μl of reaction buffer (4 mM HEPES, pH 7.5, 10% glycerol, 2 mM dithiothreitol) and 0.5 μl of 4 mM DEVD-p-NA were added to each sample and reacted at 37° C. for 1 hour. Then wavelength was measured with a […] at 405 nm.

[6] = system: 3T3-L1 adipocytes; assay: Lipolysis assay (glycerol release); format: cell-based; settings: 48 hours; listed as GCA single
Experimental: The glycerol activity assay was performed with the test materials to determine whether the cell death in the MTT assay was due to necrosis or lipolysis. Glycerol is a specific marker that increases when fat breaks down. Abcam Lipolysis Assay Kit (Colorimetric) was used according to the manufacturer's manual, and the method of the test was as follows: […] And then the lysis was induced. […] After adding the glycerol assay complex (50 μl) thereto, the solution was incubated at room temperature for 30 minutes. Absorbance was measured at OD 570 (using standard curve for absolute determination).

[7] = system: inguinal fat pad; settings: 0.2 ml s.c. once into inguinal fat pad, 8 days post-injection
[8] = Formulation stability of PPC injectable preparations: property, transparency, particle size, pH
[9] = bile acid single composition 1.0% (w/v)
[10] = bile acid single composition 2.5% (w/v)
[11] = bile acid single composition 5.0% (w/v)
[12] = bile acid single composition 7.5% (w/v)

degree of edema in words ([1]; listed as GCA 1.0%): Mild and mild
degree of edema in words ([1]; listed as GCA 2.5%): moderate
degree of edema in words ([1]; listed as GCA 5.0%): Moderate
skin lesion (erythema) in words ([2]; listed as GCA 1.0%): None
skin lesion (erythema) in words ([2]; listed as GCA 2.5%): Mild
skin lesion (erythema) in words ([2]; listed as GCA 5.0%): Mild
skin lesion (erythema) in words ([2]; listed as GCA 7.5%): Moderate
grade of skin lesion (erythema), 1 hour after administration [2, 9]: −
grade of skin lesion (erythema), 2 hours after administration [2, 9]: −
grade of skin lesion (erythema), Immediately after administration [2, 9]: −
grade of skin lesion (erythema), 1 hour after administration [2, 10]: +
grade of skin lesion (erythema), 2 hours after administration [2, 10]: +
grade of skin lesion (erythema), Immediately after administration [2, 10]: +
grade of skin lesion (erythema), 1 hour after administration [2, 11]: +
grade of skin lesion (erythema), 2 hours after administration [2, 11]: +
grade of skin lesion (erythema), Immediately after administration [2, 11]: +
grade of skin lesion (erythema), 1 hour after administration [2, 12]: ++
grade of skin lesion (erythema), 2 hours after administration [2, 12]: ++
grade of skin lesion (erythema), Immediately after administration [2, 12]: +
Inflammation (H&E), BA % (w/v) 1.0 ([3]; bile acid single composition 1.0% (w/v), injected rat paw): +
Inflammation (H&E), BA % (w/v) 2.5 ([3]; bile acid single composition 2.5% (w/v), injected rat paw): ++
Inflammation (H&E), BA % (w/v) 5.0 ([3]; bile acid single composition 5.0% (w/v), injected rat paw): ++
Inflammation (H&E), BA % (w/v) 7.5 ([3]; bile acid single composition 7.5% (w/v), injected rat paw): ++
degree of inflammation (H&E) in words ([3]; listed as GCA 1.0%): Mild
degree of inflammation (H&E) in words ([3]; listed as GCA 2.5%): moderate
inflammation at the site of administration, dermal and epidermal tissues [7]: inflammation was clearly observed
minimum molar ratio to PPC for a clear solution and mixed micelle of 10 nm or less [8]: 0.76
bile acid concentration at which stable injectable preparations can be made ([8]; based on PPC 5.0%): ≥ 2.2%
SMILES: C[C@H](CCC(=O)NCC(=O)O)[C@H]1CC[C@H]2[C@@H]3[C@H](O)C[C@@H]4C[C@H](O)CC[C@]4(C)[C@H]3C[C@H](O)[C@]12C [GCA, 2-[[(4R)-4-[(3R,5S,7R,8R,9S,10S,12S,13R,14S,17R)-3,7,12-trihydroxy-10,13-dimethyl-2,3,4,5,6,7,8,9,11,12,14,15,16,17-tetradecahydro-1H-cyclopenta[a]phenanthren-17-yl]pentanoyl]amino]acetic acid]
degree of edema, 1 hour after administration [1, 9]: + (mild edema [+, (the degree of swelling was 1-20% compared to before the injection)])
degree of edema, 2 hours after administration [1, 9]: + (mild edema [+, (the degree of swelling was 1-20% compared to before the injection)])
degree of edema, Immediately after administration [1, 9]: + (mild edema [+, (the degree of swelling was 1-20% compared to before the injection)])
degree of edema, 1 hour after administration [1, 10]: ++ (moderate edema [++, (the degree of swelling was 20-40% compared to before the injection)])
degree of edema, 2 hours after administration [1, 10]: ++ (moderate edema [++, (the degree of swelling was 20-40% compared to before the injection)])
degree of edema, Immediately after administration [1, 10]: ++ (moderate edema [++, (the degree of swelling was 20-40% compared to before the injection)])
degree of edema, 1 hour after administration [1, 11]: ++ (moderate edema [++, (the degree of swelling was 20-40% compared to before the injection)])
degree of edema, 2 hours after administration [1, 11]: ++ (moderate edema [++, (the degree of swelling was 20-40% compared to before the injection)])
degree of edema, Immediately after administration [1, 11]: ++ (moderate edema [++, (the degree of swelling was 20-40% compared to before the injection)])
degree of edema, 1 hour after administration [1, 12]: ++++ (extremely severe edema [++++, (the degree of swelling was 60% or more compared to before the injection)])
degree of edema, 2 hours after administration [1, 12]: ++++ (extremely severe edema [++++, (the degree of swelling was 60% or more compared to before the injection)])
degree of edema, Immediately after administration [1, 12]: ++ (moderate edema [++, (the degree of swelling was 20-40% compared to before the injection)])
adipocyte viability / adipocyte-reducing activity ([4]; 24 to 96 hours, various concentrations): reduced adipocyte viability in time and concentration dependent manner
adipocyte-reducing effect at the same PPC concentration ([4]; after 96 hours, FIGS. 7F to 7H): lower adipocyte-reducing effect than PPC+GCA
caspase-3 activity [5]: no time or concentration-dependent change
glycerol release / cytolytic activity [6]: slightly higher cytolytic activity than at 24 hours; also recorded: slightly higher cytolytic activity than that of 24 hours
histological change of adipocytes in fat tissue [7]: clear cell membrane boundary and a well-formed cell shape
